According to patent US20230139826A1 (NONO INC., priority 2020, published 2023):
“Also recorded” adds a separate entry of the source. Like-named read-outs stand apart in the source and are kept apart here. Non-standard residues stand in square brackets, D forms with d. Residues, ends and D or L forms follow the SMILES beside them.

How the values were obtained:
[1] = rat plasma in the absence of alteplase; settings: Rat Sprague Dawley, 37° C., up to 45 min
[2] = human plasma in the absence of alteplase; settings: 37° C., up to 45 min
plasmin (10 ug/mL) = assay: PBS during a challenge with plasmin (10 ug/mL); settings: 37° C.
[3] = tested on: rt-PA (alteplase) (135 ug/ml); assay: PBS during a challenge with rt-PA (135 ug/ml); settings: 37° C.
[4] = tested on: rt-PA (alteplase) 135 ug/ml; assay: rat plasma during a challenge with rt-PA (135 ug/ml); settings: Rat Sprague Dawley, 37° C., up to 45 min
[5] = tested on: rt-PA (alteplase) 135 ug/ml; assay: human plasma during a challenge with rt-PA (135 ug/ml); settings: 37° C., up to 45 min
[6] = tested on: tenecteplase (TNK) 37.5 ug/ml; assay: rat plasma during a challenge with tenecteplase (TNK; 37.5 ug/ml); settings: Rat Sprague Dawley
[7] = tested on: tenecteplase (TNK) 6.25 ug/ml; assay: human plasma during a challenge with tenecteplase (TNK; 6.25 ug/ml)
PDZ2 domain of PSD-95 = PDZ2 domain of PSD-95 (Homo sapiens, UniProt P78352); assay: Direct ELISA of biotinylated peptides to PSD-95 PDZ2; format: binding
PDZ2 domain of PSD-95, sequence (P78352 160-246 limits assumed): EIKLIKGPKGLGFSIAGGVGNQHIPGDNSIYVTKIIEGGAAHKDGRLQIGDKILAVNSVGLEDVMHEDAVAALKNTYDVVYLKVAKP
Method: ELISA plates were coated with 1 ug/ml PSD95PDZ2 in 50 mM bicarbonate buffer overnight at 4 C. The plate was blocked in 2%BSA in PBST (0.05%) for 2 h at room temperature. It was then incubated with biotinylated ligand (nerinetide, D-tat-L2B9c or D-Tat-L-AA) at the indicated concentrations (FIG. 4A) and incubated overnight at 4 C. After washing with PBS-T, the plate was incubated for 30 min with (1:3000) SA-HRP, washed again, and incubated with TMB solution for 10 min. The reaction was stopped with 100 ul H2504. Absorbance was determined at 450 nm with the synergy H1 reader.

plasmin = plasmin (Homo sapiens, UniProt P00747)
Method: (A) LC/MS spectrum of nerinetide after incubation with plasmin in PBS. 10 uL aliquots of nerinetide (18 mg/mL) and plasmin (1 mg/mL) were incubated in 500 uL tubes of phosphate-buffered saline at 37 C for 5 min and the reaction stopped by cooling to −80 C until tested. […] (B, C) In-vitro effect of rt-PA on nerinetide content in rat (B) and human (C) plasma. Nerinetide was spiked into the plasma samples at t=0 at a concentration of 65 ug/ml, whereas alteplase (rt-PA) was administered as a 60 min infusion at the indicated concentration (D, E) In-vivo effect of the simultaneous administration of nerinetide and rt-PA on Cmax (D) and AUC (E) in the rat. The nerinetide bolus and alteplase (60 min infusion) were started simultaneously through two separate intravenous lines. Symbols represent mean±SD. […] […] (SEQ ID NO:3) (Full-length NA-1, undigested), […] […] (SEQ ID NO:8), […] […] (SEQ ID NO:10).
Direct ELISA of the indicated biotinylated peptides to the PDZ2 domain of PSD-95. […] Symbols indicate the mean±SD of triplicate experiments. […] (B). […] E,F. Time course of nerinetide or D-TAT-L-2B9c content in rat plasma (E) and human plasma (F) during a challenge with tenecteplase (TNK; 37.5 ug/ml or 6.25 ug/ml, respectively). […] (repeated measures two-way ANOVA with a post hoc Sidak's multiple comparisons test, *P<0.01). Symbols are means±SD. […]

[8] = In-vivo pharmacokinetic analysis in rats; settings: rat, intravenous bolus 7.6 mg/kg
Method: Since the effect of nerinetide in the ESCAPE-NA1 trial was negated by alteplase, we next evaluated the effects of alteplase on pharmacokinetics (PK) of nerinetide in rats. Alteplase was administered at 0.9 mg/kg (human dose) and at 5.4 mg/kg (6 times the human dose) in an infusion that simulated the clinical protocol (10% bolus followed by a 60 min infusion of the remainder). Nerinetide was administered as an intravenous bolus at the start of the alteplase infusion at 7.6 mg/kg.
The goal of these study was to evaluate nerinetide PK parameter changes when in the presence of circulating rt-PA and plasmin. Male naïve rats received an intravenous administration of either nerinetide alone, nerinetide plus rt-PA (0.9 mg/kg) or nerinetide plus rt-PA (5.4 mg/kg). Sample collection was performed pre-dose and 0 min, 5 min, 10 min, 20 min, 50 min post-dose. At each time point, approximately 300 uL of blood was sampled from each animal using a fresh syringe. Blood samples were collected in previously prepared Eppendorf tubes [30 ul of EDTA 2.5%] and centrifuged for 20 minutes to separate plasma and cell components.
Plasma samples were stored at −80° C. until analyzed.
Changes in peptide concentration were analyzed using a two-way repeated measures ANOVA, followed by the Sidak correction for multiple comparisons. The pharmacokinetic (PK) parameters of peak plasma concentration (Cmax) and the area under the plasma concentration-time curve from 0 to last measured concentration (AUC) were obtained with PKsolver Software (USA) using a non-compartmental analysis and employing a linear interpolation. For stroke studies, differences between groups were tested using a One-way ANOVA with a Tukey's correction for multiple comparisons. […] Values for animals experiencing premature death due to any reason including subarachnoid hemorrhage or hemorrhagic transformation were imputed to reflect the worst neurological score and the maximum stroke volume achieved across all animals.

[9] = tested on: embolic middle cerebral artery occlusion (eMCAO); assay: Rat embolic middle cerebral artery occlusion model with alteplase reperfusion; format: in vivo, Sprague-Dawley rats
Method: To test this, male Sprague-Dawley rats (10-12 weeks old; 270-310 g; Charles River, Montreal, QC, Canada) were subjected to embolic middle cerebral artery occlusion (eMCAO), produced by the introduction of an autologous blood thrombus into the middle cerebral artery. Reperfusion was achieved by treatment with intravenous alteplase at a total dose of 5.4 mg/kg beginning at 90 minutes after ischemia onset. Alteplase was administered using the human injection protocol in which 10% of the total dose is given as a bolus, with the remainder 90% of the dose being given over a 60-minute infusion. […] This dose was chosen because in pilot studies, higher doses of alteplase (10× human dose) produced unacceptable mortality rates due to hemorrhagic conversions of strokes. Nerinetide was administered either 30 minutes prior to, or concurrently with, the start of the alteplase administration (FIG. 5A) at a dose of 7.6 mg/kg. […] Infarct volumes, hemispheric swelling and neurological scores were evaluated at 24 hours.
Male Sprague-Dawley rats were subjected to eMCAO as already described. Nerinetide (7.6 mg/kg) or D-Tat-L-2B9c (7.6 mg/kg) were given as bolus injections at 60 minutes. Alteplase (5.4 mg/kg over 60 min) was also started at 60 min after eMCAO, concurrently with the active agent that inhibits PSD-95. Neurological scoring, infarct volume, and hemispheric swelling were assessed at 24 hours (FIG. 8A).
The studies were designed to have 80% power to detect a 40% absolute difference between control and treatment groups at p=0.05. Animal randomization, drug allocation and treatment drug preparation were performed by a research associate not directly involved with surgical or outcome assessment. Nerinetide and D-Tat-L-2B9c were freshly prepared at a concentration of 7.6 mg/mL in 500 uL aliquots. Alteplase was prepared from lyophilized drug and, like matching placebo, stored in identical glass tubes. Drugs were kept at 4° C. until 10 minutes prior to use. The surgeon and the investigators responsible for the surgery, stroke volume measurement, behavioural assessment and statistical analysis were blinded to treatment allocation.

[10] = tested on: transient middle cerebral artery occlusion (tMCAO); assay: Rat transient middle cerebral artery occlusion model; settings: rat tMCAO, comparison of the two peptides
Method: Nerinetide and lodoxamide was administered to rats intravenously as a bolus injection, 60 minutes after tMCAo. […] Bars in A and represent mean±SD, with all individual data points plotted. Asterisks in A indicate P<0.01 when compared to the vehicle group (one-way ANOVA post hoc Tukey's correction for multiple comparisons test) N=12-14 animals/group. […] Significant differences are indicated with an asterisk when compared to the vehicle group (Kruskal-Wallis analysis of variance on ranks with a post-hoc Dunn's correction for multiple comparisons test, *P<0.01). Vehicle: PBS alone. Scrambled: ADA peptide incapable of binding PSD-95.
All animals subjected to surgery had their physiological parameters measured prior to MCA occlusion. PE-50 polyethylene tubing was inserted into the right femoral artery for invasive monitoring of mean arterial blood pressure and for obtaining blood samples to measure blood gases (pH, PaO2, and PaCO2), electrolytes (Na^+, K^+, iCa) and plasma glucose at baseline [Blood gas cartridge CG8+, VetScan i-STAT 1 Analyzer].
Infarct volumes and hemispheric swelling were evaluated at 24 hours post-stroke from standard brain slices stained with 2% 2,3,5-triphenyltetrazolium chloride (Sigma Aldrich, St. Louis, Md., USA)(7). Neurologic scoring was conducted at 24 hours after stroke onset using forelimb-placing tests comprising of frontal visual placing, sideways visual placing, frontal tactile placing, sideways tactile placing, and vertical tactile placing (scores range from 0-2 in each component for a maximum of 12 indicating maximum impairment.

plasmin (1 mg/mL) = assay: plasmin in PBS (phosphate-buffered saline); settings: 37 C, up to 5 min
[11] = cited from earlier work

ygrkkrrqrrrKLSSIESDV
not cleaved [1]: stable
not cleaved [2]: stable
not cleaved (plasmin (10 ug/mL)): no significant degradation
not cleaved [3]: not affected by co-incubation with alteplase
not cleaved [4]: no rapid degradation on addition of alteplase
not cleaved [5]: no rapid degradation on addition of alteplase
not cleaved [6]: no rapid elimination on addition of TNK
not cleaved [7]: no rapid elimination on addition of TNK

CC[C@H](C)[C@H](NC(=O)[C@H](CO)NC(=O)[C@H](CO)NC(=O)[C@H](CC(C)C)NC(=O)[C@H](CCCCN)NC(=O)[C@@H](CCCNC(=N)N)NC(=O)[C@@H](CCCNC(=N)N)NC(=O)[C@@H](CCCNC(=N)N)NC(=O)[C@@H](CCC(N)=O)NC(=O)[C@@H](CCCNC(=N)N)NC(=O)[C@@H](CCCNC(=N)N)NC(=O)[C@@H](CCCCN)NC(=O)[C@@H](CCCCN)NC(=O)[C@@H](CCCNC(=N)N)NC(=O)CNC(=O)[C@H](N)Cc1ccc(O)cc1)C(=O)N[C@@H](CCC(=O)O)C(=O)N[C@@H](CO)C(=O)N[C@@H](CC(=O)O)C(=O)N[C@H](C(=O)O)C(C)C [D-Tat-L-2B9c, ygrkkrrqrrrKLSSIESDV SEQ ID NO:89] (H-[dY]G[dR][dK][dK][dR][dR][dQ][dR][dR][dR]KLSSIESDV-OH; C-terminus assumed)
EC50 (PDZ2 domain of PSD-95): 151 nM
binding to PDZ2 domain of PSD95 in ELISA (PDZ2 domain of PSD-95): substantially similar binding as nerinetide
stability alone in phosphate buffered saline (plasmin): stable
pharmacokinetic profile compared with nerinetide [8]: higher cmax and AUC
infarct volumes, hemispheric swelling and neurological scores ([9]; 7.6 mg/kg at 60 minutes after eMCAO, 24 hours): beneficial effect of D-Tat-L-2B9c was evident
effect on infarction volume in the absence of alteplase ([9]; 7.6 mg/kg bolus at 60 minutes after eMCAO): as effective as nerinetide alone
effect on infarction volume when given concurrently with alteplase ([9]; peptide 7.6 mg/kg and alteplase 5.4 mg/kg both at 60 min after eMCAO): this effect persisted
reducing infarction volume, hemispheric swelling and improving neurological scores [10]: equally effective

YGRKKRRQRRRKLSSIESDV
not cleaved [1]: stable
not cleaved [2]: stable
cleaved bond (plasmin (1 mg/mL)): K5-R, 5 min; also recorded: R6-R, 5 min; also recorded: R7-Q, 5 min; also recorded: R9-R, 5 min; also recorded: R11-K, 5 min; also recorded: K12-L, 5 min
fragment found (plasmin (1 mg/mL)): RKLSSIESDV (SEQ ID NO:8), 5 min
not cleaved [3]: not affected by co-incubation with alteplase

alteplase: a recombinant form of tPA; thrombolytic agent [reference compound]
reduction of infarction volume ([9]; alteplase alone 5.4 mg/kg given at 60 min after eMCAO): 26%
reduction of infarction volume ([9]; alteplase alone 5.4 mg/kg given at 90 minutes after eMCAO): 18%
half-life in human plasma ([11]; in vivo): about five

B1: Plasmin: serine protease generated from circulating plasminogen by tissue-plasminogen activators (protein, UniProt P00747 20-580; P00747 581-810, looked up)
Plasmin heavy chain A: EPLDDYVNTQGASLFSVTKKQLGAGSIEECAAKCEEDEEFTCRAFQYHSKEQQCVIMAENRKSSIIIRMRDVVLFEKKVYLSECKTGNGKNYRGTMSKTKNGITCQKWSSTSPHRPRFSPATHPSEGLEENYCRNPDNDPQGPWCYTTDPEKRYDYCDILECEEECMHCSGENYDGKISKTMSGLECQAWDSQSPHAHGYIPSKFPNKNLKKNYCRNPDRELRPWCFTTDPNKRWELCDIPRCTTPPPSSGPTYQCLKGTGENYRGNVAVTVSGHTCQHWSAQTPHTHNRTPENFPCKNLDENYCRNPDGKRAPWCHTTNSQVRWEYCKIPSCDSSPVSTEQLAPTAPPELTPVVQDCYHGDGQSYRGTSSTTTTGKKCQSWSSMTPHRHQKTPENYPNAGLTMNYCRNPDADKGPWCFTTDPSVRWEYCNLKKCSGTEASVVAPPPVVLLPDVETPSEEDCMFGNGKGYRGKRATTVTGTPCQDWAAQEPHRHSIFTPETNPRAGLEKNYCRNPDGDVGGPWCYTTNPRKLYDYCDVPQCAAPSFDCGKPQVEPKKCPGR
Plasmin light chain B: VVGGCVAHPHSWPWQVSLRTRFGMHFCGGTLISPEWVLTAAHCLEKSPRPSSYKVILGAHQEVNLEPHVQEIEVSRLFLEPTRKDIALLKLSSPAVITDKVIPACLPSPNYVVADRTECFITGWGETQGTFGAGLLKEAQLPVIENKVCNRYEFLNGRVQSTELCAGHLAGGTDSCQGDSGGPLVCFEKDKYILQGVTSWGLGCARPNKPGVYVRVSRFVTWIEGVMRNN
modifications: plasmin
half-life in human plasma ([11]; reported): 4 to 8 h
